Measurements published in patent US20240075088A1, “BIOACTIVE EXTRACTION METHOD” (Performance Labs Pte. Ltd., priority 2022, published 2024).

Assay: DPPH radicals scavenging capacity assay
Format: biochemical
Description: DPPH radicals scavenging capacity assay: The ability of the plant extract to scavenge DPPH free radicals was assessed by using the method described by Takao et al. (Takao et al., 1994).
The stock solution of the plant extract was prepared in methanol to achieve the concentration of 2000 μg/ml. Further, two-fold dilutions were made to obtain concentrations of 1000, 500, 250, 125, 62.5, 31.25, 15.62 μg/ml. Diluted solutions of extract (2 ml each) were mixed with 2 ml of DPPH methanol solution (80 μg/ml). After 30 min in darkness at room temperature, the absorbance was read in a spectrophotometer at 517 nm. The control samples consisted of 2 ml of methanol added to 2 ml of DPPH solution. Caffeoylquinic acid and ascorbic acid was used as a positive control. The experiment was performed in triplicate. Scavenging activity is expressed as the inhibition percentage calculated using the following equation: Scavenging activity (%)=100×[Acontrol−Asample)/Acontrol)], where Acontrol is the absorbance of the control and Asample is the absorbance of the extract.
It was obtained from the graph of scavenging activity (%) versus concentration of samples. Low IC50 value indicates strong ability of the extract to act as DPPH scavenger.
To evaluate the antioxidant activity of different fractions, an assay method based on the reduction of DPPH was performed.

Structure (SMILES)	antioxidant activity (DPPH), conclusion in words (inferred from comparison of the 20% and 70% ethanol fractions)	DPPH antioxidant assay IC50 (concentration at which 50% of DPPH radicals were scavenged, DPPH methanol solution 80 μg/ml, 30 min in darkness, absorbance 517 nm, triplicate) [µg/mL]
Cn1c(=O)c2c(ncn2C)n(C)c1=O [caffeine]	did not contribute to antioxidant activity	–
O=C1O[C@H]([C@@H](O)CO)C(O)=C1O [Ascorbic Acid, ascorbic acid]	–	59.4
